Test [1] has as its target T1, SHV-5 β-lactamase (Klebsiella pneumoniae, UniProt P0A3M1).
T1 construct: expressed as native untagged proteins; made in house; host or cells: E. coli BL21(DE3)
The test can be described thus: β-lactamase enzyme inhibition assay (nitrocefin substrate), SHV-5. The class given is biochemical. In short, it runs like this: (§1)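 Initial nitrocefin hydrolysis (100 µM final, A486 kinetic over 10 min) was measured after a 10-min, 37 °C preincubation of each purified untagged enzyme with compound at 100–0.005 µM in PBS pH 7.0. Percent inhibition relative to inhibitor-free wells gave the IC50. Enzymes were produced in E. coli BL21(DE3).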

The target in test [2] is T2, CTX-M15 β-lactamase (Escherichia coli, UniProt Q9EXV5).
T2 construct: expressed as native untagged proteins; made in house; host or cells: E. coli BL21(DE3)
In words: β-lactamase enzyme inhibition assay (nitrocefin substrate), CTXM-15. Format: biochemical. The gist of the method: as §1

The target in test [3] is T3, p99 AmpC β-lactamase (Enterobacter cloacae, UniProt P05364).
T3 construct: expressed as native untagged proteins; made in house; host or cells: E. coli BL21(DE3)
In words: β-lactamase enzyme inhibition assay (nitrocefin substrate), P99 AmpC. The class given is biochemical. The settings on record: nitrocefin 100 μM, 37° C., PBS pH 7.0; read-out: P99 AmpC IC50. In short, it runs like this:
as §1

The target of test [4] is T4, KPC-2 β-lactamase (Klebsiella pneumoniae, UniProt Q9F663).
T4 construct: expressed as native untagged proteins; made in house; host or cells: E. coli BL21(DE3)
The test can be described thus: β-lactamase enzyme inhibition assay (nitrocefin substrate), KPC-2. The class given is biochemical. In short, it runs like this:
as §1

For test [5], the target named is T5, VIM-2 metallo β-lactamase (Pseudomonas aeruginosa, UniProt Q9K2N0).
T5 construct: made in house
The test can be described thus: β-lactamase enzyme inhibition assay (nitrocefin substrate), VIM-2. The following applies: nitrocefin 100 μM, 37° C., PBS pH 7.0; read-out: VIM-2 IC50. Format: biochemical. The gist of the method:
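VIM-2 was expressed untagged in E. coli BL21(DE3) and purified by two Q sepharose anion-exchange runs plus gel filtration to >90% purity. Compounds at 100–0.005 μM in PBS pH 7.0 were preincubated with enzyme for 10 min at 37° C, then nitrocefin was added at 100 μM final. Hydrolysis was followed kinetically at 486 nm for 10 min; IC50 is the concentration halving the initial rate relative to no-inhibitor wells.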

The target in test [6] is T6, OXA-23 β-lactamase (Acinetobacter baumannii, UniProt Q9L4P2).
T6 construct: crude β-lactamase extracts were prepared from 20 ml overnight cultures; endogenous in cells; host or cells: Acinetobacter baumannii cells containing OXA-23 (crude freeze-thaw extract)
The test can be described thus: β-lactamase enzyme inhibition assay (nitrocefin substrate), OXA-23 crude extract. Format: biochemical. The following applies: nitrocefin 100 μM, 37° C., PBS pH 7.0; read-out: OXA-23 IC50. In short, it runs like this: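 Crude enzyme came from freeze-thaw extracts of mid-log OXA-23-carrying A. baumannii grown in MH-II broth at 37° C. Inhibitors (100–0.005 μM in PBS pH 7.0) were preincubated with the enzyme for 10 min at 37° C, then 100 μM nitrocefin (final) was added and read kinetically at 486 nm for 10 min. IC50 was taken from initial hydrolysis rates relative to uninhibited controls.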

For test [7], the system named is E. coli expressing the Class A ESBL SHV-5. In words: In vitro antibacterial assay of β-lactamase inhibition (broth microdilution MIC), E. coli SHV-5. Format: cell-based. The following applies: in presence of Ceftazidime 8 μg/ml (Examples 1-56). The gist of the method: (§2)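 MIC read by eye after 16–20 h at 37° C, with CLSI-standard inocula of strains grown 3–5 h in CAMHB containing 50 μg/mL ampicillin. Compounds tested in final 2-fold dilutions from 8 to 0.015 μg/mL together with a β-lactam antibiotic.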

Test [8] relates to K. pneumoniae expressing the Class A Extended Spectrum Beta-Lactamase (ESBL) CTX-M-15. The test can be described thus: In vitro antibacterial assay of β-lactamase inhibition (broth microdilution MIC), K. pneumoniae CTX-M-15. Format: cell-based. The following applies: in presence of Ceftazidime 8 μg/ml (Examples 1-56). The gist of the method: as §2
(Dilution methods test growth across graded concentrations, often in twofold steps.)

The subject of test [9] is E. cloacae expressing the Class C P99+. In words: In vitro antibacterial assay of β-lactamase inhibition (broth microdilution MIC), E. cloacae P99+. Format: cell-based. The following applies: in presence of Ceftazidime 8 μg/ml (Examples 1-56). In short, it runs like this: as §2
For test [10], the system named is K. pneumoniae expressing the Class A carbapenemase KPC-2. The test can be described thus: microbe, parasite or virus in culture. Format: cell-based. The following applies: in presence of Ceftazidime 8 μg/ml (Examples 1-56). The gist of the method: as §2
The subject of test [11] is P. aeruginosa expressing the Class B metallo β-lactamase VIM-2. The test can be described thus: In vitro antibacterial assay of β-lactamase inhibition (broth microdilution MIC), P. aeruginosa VIM-2. Format: cell-based. The following applies: in presence of Ceftazidime 16 μg/mL (Examples 1-56). In short, it runs like this: as §2

Molecules are shown by their SMILES. Where a name gives a salt, the structure may show the parent alone.

T6 sequence (Q9L4P2 18-273): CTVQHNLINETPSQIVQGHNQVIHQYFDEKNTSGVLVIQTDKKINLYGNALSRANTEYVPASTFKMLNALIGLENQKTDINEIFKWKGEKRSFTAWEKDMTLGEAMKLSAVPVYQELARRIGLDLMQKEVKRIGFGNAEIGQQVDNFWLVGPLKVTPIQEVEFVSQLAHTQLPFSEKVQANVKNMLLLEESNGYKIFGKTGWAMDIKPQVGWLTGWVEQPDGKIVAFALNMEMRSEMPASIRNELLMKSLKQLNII
T4 sequence (Q9F663 25-293 limits assumed): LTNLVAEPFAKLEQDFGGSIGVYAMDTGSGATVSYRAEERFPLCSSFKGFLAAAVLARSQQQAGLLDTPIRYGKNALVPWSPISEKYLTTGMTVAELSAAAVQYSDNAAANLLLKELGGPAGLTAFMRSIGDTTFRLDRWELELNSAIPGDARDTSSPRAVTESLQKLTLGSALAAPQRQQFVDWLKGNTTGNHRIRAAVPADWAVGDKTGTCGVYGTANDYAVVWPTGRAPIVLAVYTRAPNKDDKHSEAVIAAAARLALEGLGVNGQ
T2 sequence (Q9EXV5 entry or part of it): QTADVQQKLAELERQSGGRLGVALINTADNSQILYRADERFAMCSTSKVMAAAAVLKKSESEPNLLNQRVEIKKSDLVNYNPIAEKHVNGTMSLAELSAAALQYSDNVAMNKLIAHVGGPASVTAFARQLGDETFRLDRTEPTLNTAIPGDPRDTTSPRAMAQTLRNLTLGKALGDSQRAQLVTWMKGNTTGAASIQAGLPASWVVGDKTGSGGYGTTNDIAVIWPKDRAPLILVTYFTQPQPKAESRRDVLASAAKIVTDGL
T3 sequence (P05364 21-381): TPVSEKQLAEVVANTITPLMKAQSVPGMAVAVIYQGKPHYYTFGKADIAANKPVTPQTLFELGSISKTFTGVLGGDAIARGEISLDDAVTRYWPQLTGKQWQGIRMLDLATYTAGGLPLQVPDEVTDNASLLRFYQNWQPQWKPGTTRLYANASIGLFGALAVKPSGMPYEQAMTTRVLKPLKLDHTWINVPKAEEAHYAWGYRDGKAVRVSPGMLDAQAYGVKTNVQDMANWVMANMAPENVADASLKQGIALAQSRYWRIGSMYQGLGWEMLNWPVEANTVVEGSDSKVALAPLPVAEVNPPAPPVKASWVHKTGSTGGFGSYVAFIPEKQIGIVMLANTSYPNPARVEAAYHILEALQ
T1 sequence (P0A3M1 22-286): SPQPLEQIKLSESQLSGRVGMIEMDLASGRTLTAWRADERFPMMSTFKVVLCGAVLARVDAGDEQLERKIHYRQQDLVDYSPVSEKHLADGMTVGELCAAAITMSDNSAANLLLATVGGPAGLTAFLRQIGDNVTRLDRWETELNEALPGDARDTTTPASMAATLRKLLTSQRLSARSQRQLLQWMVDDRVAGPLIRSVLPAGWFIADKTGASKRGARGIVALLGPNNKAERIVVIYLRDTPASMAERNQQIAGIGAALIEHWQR

With `NCc1cccc(CC(=O)N[C@@H](Cc2cccc(C(=O)O)c2O)B(O)O)c1` [Example 29, (1R)-[2-(3-aminomethyl-phenyl)-acetylamino]-(3-carboxy-2hydroxy)benzyl-methylboronic acid formate], the IC50 stood at 5 nM in test [1]; 9 nM in test [2]; 6 nM in test [3]; 16 nM in test [4]; 882 nM in test [5]; 591 nM in test [6]. Besides, the “MIC of example compound, E. coli SHV-5” value in test [7] is 0.5 µg/mL. Also, the “MIC of example compound, K. pneumoniae CTX-M-15” value (from here on “MIC … K. pneumoniae CTX-M-15”) in [8] amounted to 0.12 µg/mL. In addition, in [9], the “MIC of example compound, E. cloacae P99+” value came to 0.12 µg/mL. Moreover, the “MIC of example compound, K. pneumoniae KPC-2” value (shortened to “MIC … K. pneumoniae KPC-2”) in test [10] came to 0.03 µg/mL. Besides, the “MIC of example compound, P. aeruginosa VIM-2” value (“MIC … P. aeruginosa VIM-2” for short) in test [11] was greater than 8 µg/mL.

On to `CC(=O)Nc1ccc(C(=O)N[C@@H](Cc2cccc(C(=O)O)c2O)B(O)O)cn1` [Example 10, (2R)-3-{2-[(2-(acetylamino)-pyridine-5-carbonyl)-amino]-2-borono-ethyl}-2-hydroxy-benzoic acid], for which the IC50 in [1] worked out at 319 nM; in test [2], 3 nM; in test [3] it was 3 nM; in [4] it was 4 nM; in [5] it was 680 nM; in test [6] it was 580 nM. Also, the “MIC of example compound, E. coli SHV-5” value in test [7] is 1 µg/mL. Besides, the “MIC … K. pneumoniae CTX-M-15” value in [8] amounted to 0.25 µg/mL. Also, the “MIC of example compound, E. cloacae P99+” value in test [9] worked out at 0.5 µg/mL. The “MIC … K. pneumoniae KPC-2” value in test [10] was 0.01 µg/mL. Besides, the “MIC … P. aeruginosa VIM-2” value in test [11] is greater than 8 µg/mL.

As for `O=C(N[C@@H](Cc1cccc(C(=O)O)c1O)B(O)O)c1cccc(CN2CCNCC2)c1` [Example 20, (1R)-(3-piperazin-1-ylmethyl-benzoylamino-(3-carboxy-2-hydroxy)benzyl-methylboronic acid formate], the IC50 stood at 42 nM in [1]; 20 nM in test [2]; 0.3 nM in [3]; 9 nM in test [4]; 179 nM in test [5]; 22 nM in [6]. In addition, the “MIC of example compound, E. coli SHV-5” value in test [7] was 4 µg/mL. In addition, the “MIC … K. pneumoniae CTX-M-15” value in [8] amounted to 1 µg/mL. In test [9], the “MIC of example compound, E. cloacae P99+” value stood at 2 µg/mL. In [10], the “MIC … K. pneumoniae KPC-2” value was found to be 0.03 µg/mL. Further, the “MIC … P. aeruginosa VIM-2” value in test [11] was greater than 8 µg/mL.

For `CN(C)Cc1ccc(CC(=O)N[C@@H](Cc2cccc(C(=O)O)c2O)B(O)O)cc1` [Example 36, (1R)-[2-(4-dimethylaminomethyl-phenyl)-acetylamino]-(3-carboxy-2hydroxy)benzyl-methylboronic acid formate], the IC50 in test [1] stood at 2 nM; in [2], 4 nM; in [3], 2 nM; in test [4] it was 5 nM; in test [5], 593 nM; in test [6], 191 nM. Besides, the “MIC of example compound, E. coli SHV-5” value in [7] was determined as 0.5 µg/mL. In addition, the “MIC … K. pneumoniae CTX-M-15” value in test [8] stood at 0.12 µg/mL. Moreover, the “MIC of example compound, E. cloacae P99+” value in [9] is 0.25 µg/mL. The “MIC … K. pneumoniae KPC-2” value in test [10] was determined as 0.06 µg/mL. Also, the “MIC … P. aeruginosa VIM-2” value in [11] was greater than 8 µg/mL.

As to `Cl.NCCNCc1ccc(C(=O)N[C@@H](Cc2cccc(C(=O)O)c2O)B(O)O)cc1` [Example 15, (1R)-[4-(2-amino-ethylamino)-methyl]-benzoylamino-(3-carboxy-2-hydroxy)benzyl-methyl boronic acid hydrochloride], the IC50 in test [1] was greater than 1000 nM; in [2], 7 nM; in [3], 5 nM; in test [4], 18 nM; in test [5], 47 nM; in test [6], greater than 1000 nM. Moreover, the “MIC of example compound, E. coli SHV-5” value in [7] came to 4 µg/mL. In addition, the “MIC … K. pneumoniae CTX-M-15” value in test [8] worked out at 0.25 µg/mL. Also, the “MIC of example compound, E. cloacae P99+” value in [9] was found to be 4 µg/mL. Also, the “MIC … K. pneumoniae KPC-2” value in test [10] came out at 0.01 µg/mL. In [11], the “MIC … P. aeruginosa VIM-2” value was greater than 8 µg/mL.

As for `CNCc1ccc(C(=O)N[C@@H](Cc2cccc(C(=O)O)c2O)B(O)O)cc1.Cl` [Example 11, (1R)-[4-(methylamino)methyl]-benzoylamino-(3-carboxy-2-hydroxy)benzyl-methyl boronic acid hydrochloride], the IC50 is greater than 1000 nM in [1]; 4 nM in test [2]; 1 nM in test [3]; 4 nM in test [4]; 57 nM in test [5]; greater than 1000 nM in [6]. In addition, in test [7], the “MIC of example compound, E. coli SHV-5” value came out at 8 µg/mL. Besides, the “MIC … K. pneumoniae CTX-M-15” value in [8] was determined as 1 µg/mL. In addition, the “MIC of example compound, E. cloacae P99+” value in test [9] turned out to be 0.25 µg/mL. Also, in test [10], the “MIC … K. pneumoniae KPC-2” value was less than 0.01 µg/mL. For the same compound, in [11], the “MIC … P. aeruginosa VIM-2” value is 8 µg/mL.

For `O=C(N[C@@H](Cc1cccc(C(=O)O)c1O)B(O)O)c1cccc(CNCc2cccnc2)c1` [Example 19, (1R)-(3-{[(pyridin-3-ylmethyl)amino]methyl}-benzoylamino)-(3-carboxy-2-hydroxy)benzyl-methylboronic acid formate], the IC50 in test [1] is 54 nM; in test [2], 1 nM; in test [3], 0.2 nM; in test [4], 6 nM; in test [5] it was 510 nM; in [6] it was 19 nM. In addition, the “MIC of example compound, E. coli SHV-5” value in test [7] is 8 µg/mL. In addition, the “MIC … K. pneumoniae CTX-M-15” value in test [8] was found to be 2 µg/mL. In test [9], the “MIC of example compound, E. cloacae P99+” value was 2 µg/mL. In addition, the “MIC … K. pneumoniae KPC-2” value in test [10] is 0.12 µg/mL. For the same compound, the “MIC … P. aeruginosa VIM-2” value in test [11] was greater than 8 µg/mL.

Broadly, the IC50 is the concentration that gives 50% inhibition.
